{"source": "patent US11911610B2", "about": "“Methods for restoring sensitivity to TTFields in TTFields-resistant cancer cells with PTGER3 inhibitors” (Novocure GmbH, priority 2019, dated 2024)", "key": {"U87R resistant cells": {"test_system": "U87R resistant cells", "assay": "Live cell count of TTFields-resistant GBM cells treated with drug with or without TTFields for 3 days", "type": "cell-based, human", "settings": "for sensitivity to TTFields: inhibitor + TTFields 200 kHz compared with TTFields alone, FIG. 14", "experimental": "(§1) For the experiments summarized in FIG. 13, resistant human GBM cells were treated with either vehicle control or aspirin and with or without TTFields for 3 days. Drug was replenished daily. The numbers of live cells were quantified using a cell counter at the end point.\nPTGER3 inhibitors can restore sensitivity to TTFields."}, "[1]": {"test_system": "human GBM cell lines (LN827)", "assay": "Resistant cell line generation experiment with PTGER3 inhibitor (FIG. 16)", "type": "cell-based", "settings": "L798,106 + TTFields, 5 cycles of 7 days", "from_the_text": "For the experiments summarized in FIG. 2, TTFields-resistant human GBM cell lines were generated by seeding LN827 cells at a density of 10,000/ml and treated with TTFields for in repeated 1-week cycles at a frequency of 200 kHz. For each cycle, cells were counted on day 2, day 4 and day 7. At the end of each cycle, the cells were re-seeded at the same density as on day 0, harvested and processed for RNAseq and cryopreservation for future analysis. Resistant cells emerged after at least four weeks of TTFields treatment.\nThe resistant cell line generation experiment using the original human GBM cell lines from FIG. 2 was repeated with two more groups that included a PTGER3 inhibitor (L798,106 and L798,106+TTFields) (FIG. 16). […] Cells were seeded and counted at the same cell density and time points. Each cycle lasts for 7 days within total of 5 cycles."}, "LN827R cells": {"test_system": "LN827R cells", "assay": "Live cell count of TTFields-resistant GBM cells treated with drug with or without TTFields for 3 days", "type": "cell-based, human", "settings": "aspirin + TTFields, drug replenished daily, reduced from around 125 k/dish, TTFields alone increased count slightly", "experimental": "as §1"}, "LN428R resistant cells": {"test_system": "LN428R resistant cells", "assay": "Live cell count of TTFields-resistant GBM cells treated with drug with or without TTFields for 3 days", "type": "cell-based, human", "settings": "aspirin + TTFields, drug replenished daily, reduced from 85 k/dish, TTFields alone 70 k/dish", "experimental": "as §1"}, "[2]": {"test_system": "TTFields-resistant GBM cells (U87R, L428R, and LN827R)", "assay": "Reduction of resistance to TTFields in TTFields-resistant GBM cells (FIG. 13)", "type": "cell-based, human", "settings": "Aspirin+TTFields compared with Vehicle+TTFields, 3 days", "experimental": "as §1"}}}
{"compound": "Cc1cn(Cc2ccc(Cl)cc2Cl)c2c(/C=C/C(=O)NS(=O)(=O)c3cc(Cl)c(Cl)s3)cc(F)cc12", "note": "[DG041]", "values": [{"measurement": "live cell count", "setting": "U87R resistant cells; DG041 50 nM + TTFields 200 kHz, reduced from around 160 k/dish, TTFields alone 100 k/dish", "value": "around 40 k/dish"}, {"measurement": "sensitivity to TTFields", "setting": "U87R resistant cells", "value": "restores sensitivity to TTFields"}]}
{"compound": "COc1ccc(Br)cc1S(=O)(=O)NC(=O)/C=C/c1ccccc1Cc1ccc2ccccc2c1", "note": "[L798,106]", "values": [{"measurement": "development of resistance to TTFields", "setting": "[1]", "value": "prevented the development of resistance to TTFields"}, {"measurement": "live cell count", "setting": "U87R resistant cells; L798,106 0.5 μM + TTFields 200 kHz, reduced from around 200 k/dish, TTFields alone 125 k/dish", "value": 25, "unit": "k/dish"}, {"measurement": "sensitivity to TTFields", "setting": "U87R resistant cells", "value": "restores sensitivity to TTFields"}]}
{"compound": "CC(=O)Oc1ccccc1C(=O)O", "note": "[aspirin]", "values": [{"measurement": "live cell count", "setting": "LN827R cells", "value": 90, "unit": "k/dish"}, {"measurement": "live cell count", "setting": "LN428R resistant cells", "value": 40, "unit": "k/dish"}, {"measurement": "live cell count", "setting": "U87R resistant cells; aspirin + TTFields, drug replenished daily, reduced from 150 k/dish, TTFields alone 125 k/dish", "value": 100, "unit": "k/dish"}, {"measurement": "resistance to TTFields", "setting": "[2]", "value": "significantly reduces resistance to TTFields"}]}
